Results from patent US11781984B2, “Fluorescent method to quantify copper or platinum based on catalysis” (University of Pittsburgh—Of the Commonwealth System of …, priority 2018, dated 2023).

Key:
[1] = Fluorescence intensity of Pittsburgh Green versus PPE; assay type: physicochemical
Procedure: All fluorescence measurements were obtained using a Modulus II Microplate Multimode Reader. Fluorescence was measured after exciting samples with 490 nm light and emission was measured between 510-570 nm. All fluorescence measurements were obtained at room temperature.

[2] = system: HeLa cells; experiment: Fluorescence imaging of copper ions in live HeLa cells; assay type: cell-based; conditions: HeLa cells loaded with 1 mM CuSO4, 20 μM PPE, 160 μM DMAPPP, 15 min
Procedure: Finally, we applied our method to imaging cellular pools of copper. HeLa cells were loaded with 1 mM CuSO4 in DMEM for 30 min at 37° C. The cells were washed. PPE and DMAPPP were added during imaging to a final concentration of 20 μM and 160 μM, respectively. Images were obtained on a Nikon Ti microscope equipped with a 60× (1.4 NA) objective.

[3] = Kinetic study to determine turnover frequency of copper-mediated depropargylation of PPE; conditions: 200 nM Cu^2+, 20 μM PPE, 160 μM DMAPPP
Procedure: To determine whether this method was a catalytic method, we monitored the reaction over time (FIG. 11). A standard curve was prepared for dichlorofluorescein (DCF) by dissolving the solid in EtOH to a concentration of 20 mM. The DCF was then diluted to 500 μM in EtOH. A stock solution was prepared by adding 500 mM pH 8.5 borate buffer (600 μL), EtOH (81.6 μL), 500 μM DCF in EtOH (32 μL), 20 mM DMAPPP in DMSO (6.4 μL). This stock solution (200 μL) was then transferred to a black 96-well plate.
The diluent was prepared by mixing 500 mM borate pH 8.5 buffer (9.00 mL), EtOH (1.70 mL), and 20 mM DMAPPP in DMSO (96 μL). The diluent (100 μL) was transferred to the black 96-well plate. 2× serial dilutions were performed by removing 100 μL of the stock solution from the wells and adding it to the wells containing the diluent. […] The fluorescence of these solutions was measured and a standard curve was generated.
The working solution was prepared by mixing 500 mM borate pH 8.5 buffer (1.20 mL), EtOH (187 μL), 800 μM PPE in EtOH (40 μL), 20 mM DMAPPP in DMSO (12.8 μL) in a conical tube. […] 0 or 2.0 μM Cu^2+ (20 μL) was then added to the wells and the fluorescence was measured every 5 min for 2 h.
The fluorescence value was converted to a concentration of Pittsburgh Green using the linear regression generated from the standard curve of DCF. The fluorescence vs. time was then plotted.

- ratio of fluorescence intensities Pittsburgh Green fluorophore : PPE [1]: 200-400 :1
Substance: Propargyl Pittsburgh Green ether [PPE]
- fluorescence within cells [2]: time-dependent increase in fluorescence
- concentration of reaction product (Pittsburgh Green) produced ([3]; after one hour): approximately 480 nM
- turnover frequency ([3]; borate pH 8.5): ~2.4 per hour
